Reference: US7524930B2, “Tumor antigen” (Green Peptide Co., Ltd, priority 2003, dated 2009)
Peptide text beside a SMILES is read from it.

Experiments:
[1] = system: peripheral blood mononuclear cells derived from a cancer patient; format: cell-based, human
Procedure: Moreover, CTL-activating ability of these 19 peptides was directly examined in a ^51Cr-releasing test using toxicity to the target cells as an indicator. Specifically, the above-described PBMC, in which CTL was induced, was further recultured to proliferate in the presence of autologous APC, IL-2, and a corresponding peptide. At about day 21 to 28 after the start of reculturing, PBMC was collected and cytotoxicity thereof was tested again by measuring IFN-γ and by a 6-h ^51Cr-releasing test. PBMC of the cancer patient, which was stimulated by these peptides, lysed the HLA-A2^+ tumor cells. However, the autologous EBV-B cells and the T cells stimulated by PHA, both of which were derived from normal cells and were expressing HLA-A2, and the HLA-A2^− tumor cell RERF-LC-MS, were not lysed.

OK-CTLp = experiment: IFN-γ production by OK-CTLp against COS-7 cells cotransfected with cDNA clone and HLA-A0207 cDNA (ELISA); format: cell-based, human; settings: result in words
Procedure: 200 ng of the above-described plasmid DNA pool or clones of Panc-1 cell cDNA library was mixed with 200 ng of the cDNA of HLA-A0207 in 100 μl of Opti-MEM (Invitrogen Corp.) for 30 min. 50 μl of this mixture was added to COS-7 cells (5×10^3) and incubated for 6 h in a 96-well U-bottom type microculture plate (Nunc Corp.) for co-tranduction. Then, RPMI-1640 culture medium containing 10% FCS was added to and culturing was carried out for 2 days, followed by the addition of OK-CTLp (5×10^4) to each well. After a further 18 h incubation, 100 μl of the supernatant was collected and IFN-γ production was measured thereon by ELISA. […]
From the genes encoding the tumor antigens (Biochim. Biophys. Res. Commun., 281:936-944, 2001), which were detected by the SEREX (Serological Analysis of Recombinant cDNA Expression Libraries) method (Proc. Natl Acad. Sci. USA, 92:11910-[…], 1995) and already reported, two tumor antigen genes, KM-PA-2 and KM-PA-4; which can activate HLA-A2-restricted CTL, were found by using the same method as that of Example 2. […] However, among 1500 or more kinds of tumor antigens detected by this method, those identified as tumor antigens capable of inducing both cell-mediated immunity and humoral immunity are only MAGE-1, tyrosinase, and NY-ESO-1. […]

HLA-A0201 molecule = molecular target: T1, HLA-A0201 molecule (Homo sapiens, UniProt P04439, D140Y/D185E/D98H/E176V/E277Q/G131W/G231S/I119V/I121R/I166T/I218V/L300P/L318F/N151K/N90K/P208A/P217A/Q86G/Q94H/R138H/R169H/T345S); experiment: Binding activity of peptide to HLA-A0201 molecule on T2 cells (FACScan, MFI); settings: peptide 10 μM, positive and negative controls 898 and 490
T1 construct: endogenous in cells; host or cells: T2 cells (TAP-deficient mutant line)
Procedure: Binding activity of the peptide to the HLA-A0201 molecule was tested using a T2 cell mutant strain (Cancer Res., 54:1071-1076, 1994. ) The T2 cell expresses the HLA-A2 molecule on a cell surface without binding to a peptide, because of deficiency of TAP. Specifically, the synthesized peptide (10 μM) and the T2 cells were incubated at 26° C. for 3 h and, subsequently, incubated in 5% CO2 and 95% air at 37° C. for 3 h.
Binding affinity of the peptides to HLA-A0201 molecule was expressed as a relative mean fluorescence intensity (MFI) of the HLA-A2 molecule.

[2] = system: peripheral blood mononuclear cells derived from a cancer patient; experiment: CTL induction by peptide from autologous PBMC of cancer patient, IFN-γ production on recognition of target cells (Example 5); format: cell-based, human; settings: for IFN-γ production from peripheral blood mononuclear cells in recognition of target cells: PBMC stimulated with 10 μM peptide
[3] = system: peripheral blood mononuclear cells derived from a cancer patient; experiment: as above; format: cell-based, human; settings: PBMC stimulated with 10 μM peptide

## CC(C)C[C@H](NC(=O)[C@H](CCC(N)=O)NC(=O)[C@@H](N)CCC(N)=O)C(=O)N[C@@H](CS)C(=O)N[C@H](C(=O)N[C@@H](Cc1ccc(O)cc1)C(=O)N[C@@H](Cc1c[nH]c2ccccc12)C(=O)N[C@H](C(=O)N[C@H](C(=O)O)C(C)C)[C@@H](C)O)C(C)C [Peptide P19] (H-QQLCVYWTV-OH)
[1]
  Cytotoxicity of peptide-stimulated PBMC to the autologous EBV-B cells: showed high cytotoxicity

## KM-PA-2: tumor antigen gene from CFPAC-1 (SEREX), 2060 bp [AB060694], homologous to KIAA0124 / Bop1
OK-CTLp
  Recognition by OK-CTLp of COS-7 cells cotransfected with the cDNA and HLA-A0207 (IFN-γ production): induced IFN-γ production from OK-CTLp

## KM-PA-4: tumor antigen gene from CFPAC-1 (SEREX), 1841 bp, identical to coactosin-like protein (CLP)
OK-CTLp
  Recognition by OK-CTLp of COS-7 cells cotransfected with the cDNA and HLA-A0207 (IFN-γ production): induced IFN-γ production from OK-CTLp

## LIADETSGL [Peptide P3, Gene 1 (UBE2V) 85-93]
HLA-A0201 molecule
  MFI (relative mean fluorescence intensity of the HLA-A2 molecule; binding affinity to HLA-A0201): 910
[2]; SW620, CA9-22 and Panc-1 HLA-A2+ tumor cells, result in words
  Recognition of tumor cells by PBMC stimulated in vitro with peptide (IFN-γ production): produced IFN-γ in a significant amount
[2]; target CA9-22 (HLA-A0207/24)
  IFN-γ production from peripheral blood mononuclear cells in recognition of target cells: 58 pg/mL
[2]; target Panc-1 (HLA-A0201/11)
  IFN-γ production from peripheral blood mononuclear cells in recognition of target cells: 289 pg/mL
[2]; target SW620 (HLA-A0201/24)
  IFN-γ production from peripheral blood mononuclear cells in recognition of target cells: 188 pg/mL
[3]; target COLO320 (HLA-A24/24)
  IFN-γ production from peripheral blood mononuclear cells in recognition of target cells: 44 pg/mL
[3]; target QG56 (HLA-A26/26)
  IFN-γ production from peripheral blood mononuclear cells in recognition of target cells: 0 pg/mL
[3]; target RERF-LC-MS (HLA-A11/11)
  IFN-γ production from peripheral blood mononuclear cells in recognition of target cells: 0 pg/mL
